Here are results for twelve compounds from article PMC10353189, “Hybridization of the effective pharmacophores for treatment of epilepsy: design, synthesis, in vivo anticonvulsant activity, and in silico studies of phenoxyphenyl-1,3,4-oxadiazole-thio-N-phenylacetamid hybrids” (BMC Chemistry, 2023).

Molecules are shown by their SMILES. Like-named read-outs stand apart in the source and are kept apart here.

Experiment [1] deals with MES-induced seizure in mice. Kind of experiment: Maximal electroshock (MES) induced seizure test. Format: in vivo, Male NMRI mice. The conditions noted are these: for MES Number of animals protected / Number of tested animals / responders at 2 mg/kg: dose 2 mg/kg ip; for MES Number of animals protected / Number of tested animals: with flumazenil 1 mg/kg ip 15 min before seizure induction; for responders at 1 mg/kg / responders at 10 mg/kg / responders at 50 mg/kg / responders at 100 mg/kg / responders at 5 mg/kg / responders at 2 mg/kg / responders at 20 mg/kg: Mus musculus; for responders at 1 mg/kg: dose 1 mg/kg ip; for responders at 10 mg/kg: dose 10 mg/kg ip; for responders at 50 mg/kg: dose 50 mg/kg ip; for responders at 100 mg/kg: dose 100 mg/kg ip; for responders at 5 mg/kg: dose 5 mg/kg ip; for responders at 20 mg/kg: dose 20 mg/kg ip. Background: Protection in the maximal electroshock model is a classic sign of anticonvulsant action.

Experiment [2] has as its system PTZ-induced lethal convulsion in mice. Nature of the experiment: Pentylenetetrazole (PTZ) induced seizure test. Format: in vivo, Male NMRI mice. Particulars: Mus musculus; for responders at 50 mg/kg: dose 50 mg/kg ip; for responders at 5 mg/kg: dose 5 mg/kg ip; for responders at 2 mg/kg: dose 2 mg/kg ip; for responders at 1 mg/kg: dose 1 mg/kg ip; for responders at 10 mg/kg: dose 10 mg/kg ip.

[3] abbreviates: 30 min before PTZ 100 mg/kg ip, read-out: PTZ Number of animals protected / Number of tested animals.
Where [4] appears, read: PTZ 100 mg/kg ip, read-out: PTZ %Protection.
The mark [5] stands for this setting: MES 50 mA, 60 Hz, 0.2 s, read-out: MES Number of animals protected / Number of tested animals (converted).
The mark [6] stands for this setting: MES 50 mA, 60 Hz, 0.2 s, read-out: MES Number of animals protected / Number of tested animals.
The mark [7] stands for this setting: 30 min before PTZ 100 mg/kg ip, read-out: PTZ Number of animals protected / Number of tested animals (converted).

As for `CN1C(=O)CN=C(c2ccccc2)c2cc(Cl)ccc21` [Diazepam, reference compound], the “MES Number of animals protected / Number of tested animals” value in experiment [1] is given as 0/6.

For `Cc1ccc(NC(=O)CSc2nnc(-c3ccccc3Oc3ccccc3)o2)cc1` [Compound 8b, 2-((5-(2-phenoxyphenyl)-1,3,4-oxadiazol-2-yl)thio)-N -(p-tolyl)acetamide], the responders at 50 mg/kg in experiment [2] (setting [3]) was 0%; in experiment [2] (setting [4]), 0%; in experiment [1] (setting [6]), 40%; in experiment [1] (read-out: MES %Protection), 40%. Also, the responders at 1 mg/kg in experiment [1] (setting [5]) and in experiment [1] (read-out: MES %Protection) was 0% throughout. For the same compound, the responders at 10 mg/kg in experiment [1] (setting [5]) and in experiment [1] (read-out: MES %Protection) was 25% in each case. Moreover, the responders at 100 mg/kg in experiment [1] (setting [5]) and in experiment [1] (read-out: MES %Protection) was 75% each time.

Regarding `O=C(CSc1nnc(-c2ccccc2Oc2ccccc2)o1)Nc1ccc(F)cc1F` [Compound 8e, N-(2,4-difluorophenyl)-2-((5-(2-phenoxyphenyl)-1,3,4-oxadiazol-2-yl)thio)acetamide], the responders at 5 mg/kg in experiment [2] (setting [7]) was 0%; in experiment [2] (setting [4]), 0%; in experiment [1] (setting [5]) it was 25%; in experiment [1] (read-out: MES %Protection), 25%. For the same compound, the responders at 1 mg/kg in experiment [1] (setting [5]) and in experiment [1] (read-out: MES %Protection) was 25% throughout. Moreover, the responders at 10 mg/kg in experiment [1] (setting [5]) and in experiment [1] (read-out: MES %Protection) was 25% throughout.

`O=C(CSc1nnc(-c2ccccc2Oc2ccccc2)o1)Nc1ccccc1[N+](=O)[O-]` [Compound 8k, N-(2-nitrophenyl)-2-((5-(2-phenoxyphenyl)-1,3,4-oxadiazol-2-yl)thio)acetamide]: the responders at 2 mg/kg in experiment [2] (setting [3]) was 0%; in experiment [2] (setting [4]), 0%; in experiment [1] (setting [5]), 75%; in experiment [1] (read-out: MES %Protection) it was 75%. In addition, the responders at 5 mg/kg in experiment [1] (setting [5]) and in experiment [1] (read-out: MES %Protection) was 75% each time. Moreover, the responders at 10 mg/kg in experiment [1] (setting [5]) and in experiment [1] (read-out: MES %Protection) was 50% in each case. Besides, in experiment [1], the “MES Number of animals protected / Number of tested animals” value was 0/4.

As for `COc1ccc(NC(=O)CSc2nnc(-c3ccccc3Oc3ccccc3)o2)cc1` [Compound 8c, N-(4-methoxyphenyl)-2-((5-(2-phenoxyphenyl)-1,3,4-oxadiazol-2-yl)thio)acetamide], the responders at 2 mg/kg in experiment [2] (setting [3]) worked out at 0%. In experiment [2] (setting [4]), the responders at 2 mg/kg worked out at 0%. In experiment [1] (setting [5]), the responders at 1 mg/kg was 0%, the responders at 2 mg/kg was 25%, the responders at 5 mg/kg is 25% and the responders at 10 mg/kg was 25%. The responders at 20 mg/kg in experiment [1] (setting [5]) is 75%. In addition, in experiment [1] (read-out: MES %Protection), the responders at 1 mg/kg was 0%, the responders at 2 mg/kg was determined as 25%, the responders at 5 mg/kg stood at 25% and the responders at 10 mg/kg came to 25%. In addition, the responders at 20 mg/kg in experiment [1] (read-out: MES %Protection) came to 75%.

Regarding `Cc1c(NC(=O)CSc2nnc(-c3ccccc3Oc3ccccc3)o2)cccc1[N+](=O)[O-]` [Compound 8m, N-(2-methyl-3-nitrophenyl)-2-((5-(2-phenoxyphenyl)-1,3,4-oxadiazol-2-yl)thio)acetamide], the responders at 1 mg/kg was 0% in experiment [2] (setting [3]), 0% in experiment [2] (setting [4]), 25% in experiment [1] (setting [5]) and 25% in experiment [1] (read-out: MES %Protection). Moreover, the responders at 2 mg/kg in experiment [1] (setting [5]) and in experiment [1] (read-out: MES %Protection) was 50% each time. Moreover, the responders at 10 mg/kg in experiment [1] (setting [5]) and in experiment [1] (read-out: MES %Protection) was 0% in each case. Besides, the responders at 50 mg/kg in experiment [1] (setting [6]) and in experiment [1] (read-out: MES %Protection) was 0% each time.

For `O=C(CSc1nnc(-c2ccccc2Oc2ccccc2)o1)Nc1ccccc1Cl` [Compound 8f, N-(2-chlorophenyl)-2-((5-(2-phenoxyphenyl)-1,3,4-oxadiazol-2-yl)thio)acetamide], the responders at 5 mg/kg in experiment [2] (setting [7]), in experiment [2] (setting [4]), in experiment [1] (setting [5]) and in experiment [1] (read-out: MES %Protection) was 0% each time. Also, the responders at 10 mg/kg in experiment [1] (setting [5]) and in experiment [1] (read-out: MES %Protection) was 25% each time. Moreover, the responders at 20 mg/kg in experiment [1] (setting [5]) and in experiment [1] (read-out: MES %Protection) was 75% throughout.

Turning to `O=C(CSc1nnc(-c2ccccc2Oc2ccccc2)o1)Nc1cccc(Br)c1` [Compound 8i, N-(3-bromophenyl)-2-((5-(2-phenoxyphenyl)-1,3,4-oxadiazol-2-yl)thio)acetamide], the responders at 5 mg/kg in experiment [2] (setting [7]) is 0%; in experiment [2] (setting [4]) it was 0%; in experiment [1] (setting [5]), 50%; in experiment [1] (read-out: MES %Protection), 50%. Besides, the responders at 1 mg/kg in experiment [1] (setting [5]) and in experiment [1] (read-out: MES %Protection) was 0% in each case. For the same compound, the responders at 10 mg/kg in experiment [1] (setting [5]) and in experiment [1] (read-out: MES %Protection) was 25% in each case. Moreover, the responders at 20 mg/kg in experiment [1] (setting [5]) and in experiment [1] (read-out: MES %Protection) was 50% throughout.

Take `O=C(CSc1nnc(-c2ccccc2Oc2ccccc2)o1)Nc1ccccc1` [Compound 8a, 2-((5-(2-phenoxyphenyl)-1,3,4-oxadiazol-2-yl)thio)-N -phenylacetamide]: in experiment [2] (setting [7]), the responders at 5 mg/kg is 0%. Moreover, the responders at 5 mg/kg in experiment [2] (setting [4]) amounted to 0%. For the same compound, in experiment [1] (setting [5]), the responders at 1 mg/kg was 62.5%, the responders at 2 mg/kg is 50%, the responders at 5 mg/kg was 50% and the responders at 10 mg/kg was 50%. Moreover, the responders at 20 mg/kg in experiment [1] (setting [5]) is 50%. Further, in experiment [1] (read-out: MES %Protection), the responders at 1 mg/kg stood at 62.5%, the responders at 2 mg/kg amounted to 50%, the responders at 5 mg/kg worked out at 50% and the responders at 10 mg/kg was found to be 50%. The responders at 20 mg/kg in experiment [1] (read-out: MES %Protection) came out at 50%.

In the case of `O=C(CSc1nnc(-c2ccccc2Oc2ccccc2)o1)Nc1ccc(Br)cc1` [Compound 8j, N-(4-bromophenyl)-2-((5-(2-phenoxyphenyl)-1,3,4-oxadiazol-2-yl)thio)acetamide], the responders at 5 mg/kg was 0% in experiment [2] (setting [7]), 0% in experiment [2] (setting [4]), 50% in experiment [1] (setting [5]) and 50% in experiment [1] (read-out: MES %Protection). Besides, the responders at 10 mg/kg is 25% in experiment [2] (setting [7]), 25% in experiment [2] (setting [4]), 50% in experiment [1] (setting [5]) and 50% in experiment [1] (read-out: MES %Protection). The responders at 1 mg/kg in experiment [1] (setting [5]) and in experiment [1] (read-out: MES %Protection) was 25% each time.

Consider `O=C(CSc1nnc(-c2ccccc2Oc2ccccc2)o1)Nc1ccc([N+](=O)[O-])cc1` [Compound 8L, N-(4-nitrophenyl)-2-((5-(2-phenoxyphenyl)-1,3,4-oxadiazol-2-yl)thio)acetamide], for which the responders at 2 mg/kg is 0% in experiment [2] (setting [3]), 0% in experiment [2] (setting [4]), 25% in experiment [1] (setting [5]) and 25% in experiment [1] (read-out: MES %Protection). The responders at 5 mg/kg in experiment [2] (setting [7]) is 25%; in experiment [2] (setting [4]), 25%; in experiment [1] (setting [5]) it was 75%; in experiment [1] (read-out: MES %Protection), 75%. In addition, the responders at 10 mg/kg in experiment [2] (setting [7]) was 0%; in experiment [2] (setting [4]), 0%; in experiment [1] (setting [5]), 50%; in experiment [1] (read-out: MES %Protection), 50%. Further, the responders at 1 mg/kg in experiment [1] (setting [5]) and in experiment [1] (read-out: MES %Protection) was 25% in each case.

As for `O=C(CSc1nnc(-c2ccccc2Oc2ccccc2)o1)Nc1ccc(F)cc1` [Compound 8d, N-(4-fluorophenyl)-2-((5-(2-phenoxyphenyl)-1,3,4-oxadiazol-2-yl)thio)acetamide], the responders at 5 mg/kg in experiment [2] (setting [7]) was 0%. In addition, the responders at 5 mg/kg in experiment [2] (setting [4]) was 0%. Also, in experiment [1] (setting [5]), the responders at 1 mg/kg was 25%, the responders at 2 mg/kg was 50%, the responders at 5 mg/kg is 50% and the responders at 10 mg/kg was 50%. In experiment [1] (setting [5]), the responders at 20 mg/kg was 25%. In addition, in experiment [1] (read-out: MES %Protection), the responders at 1 mg/kg amounted to 25%, the responders at 2 mg/kg was 50%, the responders at 5 mg/kg was found to be 50% and the responders at 10 mg/kg was found to be 50%. The responders at 20 mg/kg in experiment [1] (read-out: MES %Protection) is 25%.
